From patent publication EP4122463A1, “DRUG IN THE FORM OF A COMPLEX OF 3,3'-DIINDOLYLMETHANE WITH Beta-CYCLODEXTRIN” (Kiselev, Vsevolod Ivanovich, priority 2020, dated 2021)

What was measured:
[1] = Solubility of 3,3'-diindolylmethane as a function of concentration of various cyclodextrins; assay type: physicochemical; details: solutions of α-, β- and γ-cyclodextrin, figure 2
Excerpt: Solubility of 3,3'-diindolylmethane was investigated as a function of concentration of various cyclodextrins. The following were used in the experiments: • α-cyclodextrin (αCD); • β-cyclodextrin (βCD); • γ-cyclodextrin (γCD).

[2] = Concentration of 3,3'-diindolylmethane in the blood plasma of patients; assay type: in vivo; details: DIM dosage 100 mg
Excerpt: (§1) In clinical studies, effectiveness of a water-soluble complex based on cyclodextrins and crystalline 3,3'-diindolylmethane in equal doses was compared. […]

[3] = Clinical comparison of effectiveness of water-soluble complexes and crystalline DIM in equal doses; assay type: in vivo; details: all studied groups of patients
Excerpt: as §1

[4] = cited from earlier work

c1ccc2c(Cc3c[nH]c4ccccc34)c[nH]c2c1 [DIM crystalline, 3,3'-diindolylmethane]
maximum solubility of 3,3'-diindolylmethane [1]: maximum solubility of 3,3'-diindolylmethane is achieved in combination with β-cyclodextrin (βCD)
The concentration of DIM in plasma [2]: less than 30 ng / ml
effectiveness (dynamics in patients) [3]: absence of such
Solubility of 3,3'-diindolylmethane in DMSO [4]: 18-20%
